One compound from patent US9629822B2, “Flavonoid based antiviral targets” (UNIVERSITY OF CENTRAL FLORIDA RESEARCH FOUNDATION, INC., priority 2012, dated 2017) can be followed below.

The target in one series is T1, US28 receptor (Human cytomegalovirus, UniProt P69332).
T1 construct: expressed in transfected cells; host or cells: HEK 293T cells, transiently transfected
Put plainly: PathDetect trans Elk1 luciferase reporter gene assay in US28-transfected 293T HEK cells. In kind it is cell-based, Human Cytomegalovirus (HCMV). The essentials: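 HEK293T cells transiently transfected with Elk1, Luc and US28 vector (empty pcDNA3 for mock) were dosed with compounds in DMEM/1% FBS with 1% DMSO for 20-24 h at 37° C. Bright-Glo luminescence decrease was read; EC50 is halfway between maximal response and no-compound control, by non-linear regression.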

For series [1], the system named is mock transfected 293T HEK cells. Put plainly: PathDetect Elk1 luminescence in mock transfected (empty pcDNA3 vector) 293T HEK cells, off-target effect. Format: cell-based, human. The conditions noted are these: Homo sapiens, 10 μM vs 1% DMSO control, Equation 1; read-out: Effect(%) on mock cells with each drug at 10 μM. The method in brief: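 HEK 293T cells were transiently transfected with PathDetect Elk1/luciferase and empty pcDNA3, then exposed to 10 μM compound in medium with 1% FBS and 1% DMSO for 20-24 h at 37 °C. BrightGlo luminescence was compared with the 1% DMSO control: % effect = 100%×(mock/DMSO) − 100%.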

In another series the test system is HIV-1 BaL. Briefly: Anti-HIV assay (luciferase, HIV-1 BaL infection). In kind it is cell-based. The conditions noted are these: Experiment 2B. The essentials: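 Cells infected with HIV-1 BaL at 2 ng/mL p24 (MOI approx 0.02) in compound presence. Infection read out by luciferase.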
Series [2] in a line: TZMbI assay for cell safety (cell viability and growth, CytoTox Glo). The conditions noted are these: human, TZMbI cells, Experiment 2A, read-out: % decrease in viability compared to 0.1% DMSO vehicle based on viable cell luminescence. The procedure: Assays were performed below in accordance with the procedures set forth in The Journal of Immunology, 2006, 176, pp. 6900-905; AIDS Research and Human Retroviruses, 2004, 20:11, pp. 1157-1665.^32,33 TZMbI assays for cell safety were performed to identify potential anti-viral compounds. TZMbI assays for cell safety were performed to identify potential anti-viral compounds per the methods.

T1 sequence (P69332 whole entry): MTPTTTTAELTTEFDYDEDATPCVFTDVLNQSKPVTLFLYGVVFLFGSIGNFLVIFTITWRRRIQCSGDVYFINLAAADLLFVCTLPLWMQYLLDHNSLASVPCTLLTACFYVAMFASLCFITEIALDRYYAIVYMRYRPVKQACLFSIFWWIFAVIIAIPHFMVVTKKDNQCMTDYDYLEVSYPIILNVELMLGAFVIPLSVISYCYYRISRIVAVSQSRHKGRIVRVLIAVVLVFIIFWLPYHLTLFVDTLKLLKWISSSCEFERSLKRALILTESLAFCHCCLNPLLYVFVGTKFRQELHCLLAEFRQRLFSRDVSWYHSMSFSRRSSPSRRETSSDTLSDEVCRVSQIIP

On to `COc1ccccc1-c1oc2ccccc2c(=O)c1O` [Compound 9a, 3-Hydroxy-2-(2-methoxyphenyl)-4H-chromen-4-one], for which, on US28 receptor (EC50 (μM), 293T HEK cells transiently expressing US28, Elk1 reporter, NE = no effect when tested at 10 μM of compound), a half-maximal response (EC50) required 4.6 µM. The “type of activity on the US28 receptor (agonist / inverse agonist / none), in words” value on US28 receptor (Elk1 reporter, US28-transfected HEK cells) is on record as “inhibited US28 receptor constitutive activity”. Also, the “Efficacy(%)” value on US28 receptor (maximum intrinsic activity from dose-response curve, negative = inverse agonism) is −19%. On US28 receptor (read-out: Efficacy(%), maximum intrinsic activity from dose-response curve, negative = inverse agonism), the Emax was -19%. The activation at 10 µM in series [1] is -1%. The “RLU (relative luciferase units)” value in the series with HIV-1 BaL (5 μM) turned out to be 16.52 RLU; with HIV-1 BaL (10 μM), 16.51 RLU; in the series with HIV-1 BaL (20 μM), 36.83 RLU; with HIV-1 BaL (40 μM), 65.50 RLU; with HIV-1 BaL (80 μM) it was 59.24 RLU. In addition, the inhibition at 5 µM in the series on HIV-1 BaL (Human immunodeficiency virus 1, BAL, 5 μM) is -3.31%. In addition, the inhibition at 10 µM in the series with HIV-1 BaL (Human immunodeficiency virus 1, BAL, 10 μM) is -24.9%. The inhibition at 20 µM in the series with HIV-1 BaL (Human immunodeficiency virus 1, BAL, 20 μM) is -21.9%. Further, the inhibition at 40 µM in the series with HIV-1 BaL (Human immunodeficiency virus 1, BAL, 40 μM) is -25.4%. In addition, the inhibition at 80 µM in the series on HIV-1 BaL (Human immunodeficiency virus 1, BAL, 80 μM) was -7.86%. In addition, the cytotoxicity at 5 μM in series [2] (5 μM) was -3.31%. Also, the cytotoxicity at 10 μM in series [2] (10 μM) was -24.9%. Further, the cytotoxicity at 20 μM in series [2] (20 μM) was -21.6%. Besides, the cytotoxicity at 40 μM in series [2] (40 μM) is -25.4%. Besides, the cytotoxicity at 80 μM in series [2] (80 μM) was -7.86%.
